Experimental data: patent publication US20260285847A1, “SYMMETRIC AMINOINDOLE-LINKED TRIAZINE FOR A DUAL EFFECT ON ALPHA-SYNUCLEIN AND TAU ISOFORM 2N4R FIBRILLIZATION” (Purdue Research Foundation, priority 2023, published 2026)
“Also recorded” adds a separate entry of the source.

Assays:
[1] = tested on: paired helical filaments isolated from AD brains; experiment: Ex vivo disaggregation of paired helical filaments (TEM); set-up: species or system human; details: compound 50 μM, 120 hours at 37° C., vs 1.5% DMSO
Source text: (§1) Amyloid-β plaques were purified from postmortem human AD brains obtained from patients diagnosed with advanced Alzheimer's (Braak stage V or VI) (Tissue Biobank at Case Western Reserve University-Cleveland Clinic) using ultracentrifugation with a sucrose gradient and cell sorting, as previously published.^38-39 Purified amyloid-β plaques were examined with polarized and fluorescence microscopy (Congo Red and Thioflavin-S staining) and scanning electron microscopy. Each aliquot of amyloid-β plaques was solubilized with 60 μL of 10 mM PBS buffer (pH 7.4). One extraction consisted of 0.28 mg/ml of protein, as measured with nanodrop (A260/280 nm). A volume of 20 μL of extraction was incubated with 1.5% DMSO (control) or compound 10 (50 μM) for 120 hours at 37° C. prior to visualization by transmission electron microscopy.
(§2) The protein quantification of the plaques isolated from AD brains were measured with nanodrop. […] Compound 10 was tested at 50 μM based on the protein levels and results obtained with PICUP experiments (FIG. 7). AP-plaque samples were incubated with 1.5% DMSO (control) or compound 10 (50 μM) in 10 mM PBS buffer (pH 7.4) for 120 hours at 37° C. prior to visualization by transmission electron microscopy. During the visualization of the grids, several paired helical filaments were observed.

[2] = tested on: Aβ-plaques isolated from AD brains; experiment: Ex vivo disaggregation of Aβ-plaques (TEM); set-up: species or system human; details: compound 50 μM, 120 hours at 37° C., vs 1.5% DMSO
Source text: as §1, §2

tau isoform 2N4R = target: T1, tau isoform 2N4R (Homo sapiens, UniProt P10636); experiment: PICUP cross-linking assay of tau oligomer formation; format: biochemical
T1 construct: made in house; host or cells: E. coli BL21(DE3)
Experimental: Chemical and peptide source. DMSO and thioflavin-T (ThT) were purchased from Alfa Aesar (Ward Hill, MA). Procuration of recombinant α-syn was from rPeptide (WatKinsville, GA). The recombinant p-tau isoform 1N4R was prepared as published previously.^31, 36 Concerning the preparation of tau 2N4R, bacterial expression plasmid consisting of the vector pRK172 carrying a cDNA encoding the human Tau 2N4R isoform was a kind gift of Dr. David Eliezer (Weill Cornell Medicine). For protein expression, E. coli BL21(DE3) cells were transformed with the plasmid and grown in LB media supplemented with ampicillin (100 μg/mL). Protein over-expression was induced by the addition of 1 mM IPTG for 4 h at 37° C., and cells were pelleted by centrifugation at 6,000 g for 15 min at 4° C. The cells were resuspended in lysis buffer (20 mM MES, 400 mM NaCl, 0.2 mM MgCl2, 1 mM EGTA, protease inhibitor cocktail (P8340, Sigma Aldrich), 0.25 mg/mL lysozyme, and 1 μg/mL DNase I, pH 6.8) and lysed by a French press cell disruptor at 4° C., and the lysate was boiled for 20 min. Denatured proteins were pelleted by centrifugation at 30,000 g for 30 min at 4° C., and the supernatant was dialyzed overnight against cation exchange buffer (20 mM MES, 50 mM NaCl, 1 mM MgCl2, 1 mM EGTA, 2 mM DTT, 0.1 mM PMSF, pH 6.8). The dialysate was loaded onto a HiPrep SP HP column, and proteins were eluted with a linear gradient ranging from 50 mM to 1 M NaCl. Fractions containing tau isoform 2N4R were pooled, and the resulting protein solution was dialyzed against PBS (pH 7.4) and stored at −80° C.
PICUP is a technique in which oligomer formation is induced by cross-linking. To induce oligomerization by cross-linking, α-syn (from Rpeptide, LLC) and tau isoform 2N4R were diluted in 10 mM phosphate buffer (pH 7.4) to reach a final concentration of 10 μM. Different compounds were added to the protein solution at a final concentration of 50 μM, resulting in a molar ratio of 1:5. […]

alpha-synuclein (α-syn) = target: T2, alpha-synuclein (α-syn) (Homo sapiens, UniProt P37840); experiment: Thioflavin T (ThT) fluorescence assay of α-syn fibril formation; format: biochemical; details: compound 100 μM
T2 construct: purchased rPeptide
Experimental: Thioflavin fluorescence assays. Thioflavin fluorescence assays were used to monitor fibril formation of recombinant α-syn, tau isoform 2N4R, treated with control DMSO and different compounds. Kinetics of α-syn fibrillization were performed using thioflavin T (ThT) as published previously.^32′ ^37 The fluorescence emission experiments were performed with the excitation and emission wavelengths set at 440 and 485 nm, respectively, with a Synergy HT multi-mode microplate reader (BioTek, Winooski, VT). Samples were measured in three replicates and the experiments were repeated three times using at least two different stock solutions. For each time point, arbitrary units of fluorescence were calculated from the mean values normalized against the maximum value in each completed assay. All results contained in FIG. 1 were presented as mean±SEM.
FIG. 1. Chemical structure, physicochemical descriptors, and the effect of compounds on alpha-synuclein (α-syn) aggregation measured as fluorescence intensity using ThT assay. TPSA, Log P, and Log D were obtained with SwissADME. BBB and pKa were obtained from the Blood-Brain Barrier Prediction Server (https://www.cbligand.org/BBB/) and Chemaxon, respectively. CNS MPO scores were assessed as published previously, The ThT (%) represent the maximum fluorescence intensity obtained at the plateau phase of the kinetics of fibrillization using 6.25 μM of α-syn. Compounds were tested at 100 μM (molar ratio 1:16). BBB, blood-brain barrier; C log D, calculated distribution coefficient at 7.4; C log P, calculated partition coefficient; CNS MPO, Central Nervous System Multi Parameter Optimization; HBA, Hydrogen Bond Acceptor; HBD, Hydrogen Bond Donor; LR5, Lipinski's rule of five; pKa, negative log of acid dissociation constant; ThT, Thioflavin T; TPSA, Topological polar surface area.

T1 sequence (P10636 1-441 isoform P10636-8): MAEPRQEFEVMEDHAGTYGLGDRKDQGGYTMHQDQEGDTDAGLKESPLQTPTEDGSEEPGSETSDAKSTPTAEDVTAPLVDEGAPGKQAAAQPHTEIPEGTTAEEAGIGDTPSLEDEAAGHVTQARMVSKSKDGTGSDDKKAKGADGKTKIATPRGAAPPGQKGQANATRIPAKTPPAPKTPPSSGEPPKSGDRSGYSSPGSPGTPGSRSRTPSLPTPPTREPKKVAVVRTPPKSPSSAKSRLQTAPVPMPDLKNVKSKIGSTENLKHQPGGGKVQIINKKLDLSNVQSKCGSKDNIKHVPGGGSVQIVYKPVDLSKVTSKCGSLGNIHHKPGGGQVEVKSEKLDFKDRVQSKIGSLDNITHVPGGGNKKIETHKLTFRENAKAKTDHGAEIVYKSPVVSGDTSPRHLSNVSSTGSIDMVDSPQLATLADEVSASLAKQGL

## c1cc(Nc2ncnc(Nc3cccc4[nH]ccc34)n2)c2cc[nH]c2c1 [Compound 10, N2,N4-bis(1H-indol-4-yl)-1,3,5-triazine-2,4-diamine]
[1]
  disaggregation of paired helical filaments (TEM, in words): shorter paired helical filaments; also recorded: disaggregated human Aβ plaques and NFTs
[2]
  disaggregation of Aβ-plaques (TEM, in words): smaller AP-plaques; also recorded: disaggregated human Aβ plaques and NFTs
Tau isoform 2N4R; compound 50 μM, high molecular weight oligomers around 190 kDa
  tau oligomer formation (PICUP, in words): inhibited both α-syn and tau oligomer formation
Tau isoform 2N4R; compound 3.125 to 50 μM
  tau isoform 2N4R oligomerization at different concentrations (PICUP): effective in reducing oligomerization of α-syn and tau isoform 2N4R in a dose-dependent manner
alpha-synuclein (α-syn); α-syn 6 μM
  lag time of α-syn fibril elongation: delayed slightly the lag time
alpha-synuclein (α-syn); α-syn 6.25 μM (molar ratio 1:16), compared with DMSO control, mean±SEM, read-out: ThT fluorescence intensity (FI), maximum at the plateau phase of α-syn fibrillization
  activity at 100 µM: 13.5 ± 1.7%
